Assay results as given in PMC12040169 (PLOS Biology, 2025).

assay: in vitro; conditions: human, hela cells, % viability

| SMILES | viability at 28.5 h, 10 µM |
| --- | --- |
| CC[C@H]1C[N@@]2CC[C@H]1C[C@@H]2CNS(=O)(=O)c1cccc2cccnc12 [CBK288747] | 90.6% |
| COc1ccc(-c2[nH]c(=S)ncc2-c2ccccc2)c(O)c1 [CBK288447] | 91.5% |
| CC(C)OCC(O)Cn1c(NC2CCCCC2)nc2c1c(=O)[nH]c(=O)n2C (stereo not shown) [CBK140893] | 107% |
| Cc1nc(-c2nnc(SCc3ccc(C(F)(F)F)cc3)o2)cs1 [CBK067715] | 95.1% |
| COc1ccc(OC)c(-n2c(C)cn3c4c(=O)[nH]c(=O)n(C)c4nc23)c1 [CBK141314] | 59.5% |
| CSC(=S)n1c(C)nc2ccccc21 [CBK018539] | 92.3% |
| C=CCN1CCCC[C@H]2CN(S(=O)(=O)c3cccc(F)c3)C[C@H]21 [CBK285500] | 103% |
| CCc1cc(C(=O)NC(c2ccncc2)c2cccs2)n(C)n1 (stereo not shown) [CBK281482] | 109% |
| Cc1c(C)n(Cc2ccco2)c2ncnc(NCC(=O)O)c12 [CBK307563] | 101% |
| CC(C)(C)c1ccc(C(=O)N2CCN(C(=O)CN3CCOCC3)C2)cc1 [CBK051554C] | 112% |
| C(=N\Nc1nc2ccccc2[nH]1)/c1cccnc1 [CBK026357] | 115% |
| CCn1c(=O)sc2cc(Br)ccc21 [CBK026526] | 97% |
| CN1CCN(c2nccnc2-c2cccc(F)c2)CC1 [CBK036876] | 89.8% |
| COc1ccc(-c2ccc3c(c2)C(=O)N2CC[C@H](NC(=O)C4CCCC4)[C@H]2C(=O)N3)cc1 [CBK289330] | 108% |
| CCOC(=O)c1ccccc1NS(=O)(=O)Cc1ccccc1[N+](=O)[O-] [CBK050594] | 92.3% |
| CC1CCN(S(=O)(=O)N2CCNCC2)CC1 [CBK269836C] | 91.5% |
| COc1ccc(CC(=O)N2CC=C(c3ccc(C)o3)CC2)cc1 [CBK283572] | 92.4% |
| COc1ccc(C[C@@H]2NC(=O)[C@H]3CN(C(=O)c4cccc(F)c4)CCN3C2=O)cc1 [CBK289604] | 88.8% |
| Fc1ccc(-n2nnnc2SCc2ccc(Cl)cc2)cc1Cl [CBK102075] | 97.5% |
| OC[C@H]1O[C@@H](n2cnc3c(Cl)ncnc32)C(O)[C@H]1O (stereo partly shown) [CBK201266] | 99.1% |
| CCOC(=O)CN1CCN(S(=O)(=O)c2ccc(F)c(F)c2F)CC1 [CBK044345] | 92.4% |
| CN(C)CCCN1C(=O)C(O)=C(C(=O)c2ccc(Br)cc2)C1c1cccnc1 (stereo not shown) [CBK264589] | 105% |

| SMILES | viability at 28.5 h, 10 µM |
| --- | --- |
| COc1ccc([C@H]2CN(C(=O)c3ccccc3)[C@@H]3CCN(Cc4ccccc4C)C[C@H]23)cc1 [CBK285583] | 105% |
| COc1ccc(C(C)C)cc1-c1cncc(NCCc2c[nH]c3ccccc23)n1 [CBK065174] | 96.5% |
| Cc1nc(C(F)(F)F)ccc1C(=O)NCC(C)(C)N1CCCCC1 [CBK281864] | 98% |
| COC(=O)C1CCCN1CC(=O)NCc1ccc(OCC(N)=O)cc1 (stereo not shown) [CBK304970] | 86.1% |
| C=CCn1c(-c2sc(NC(=O)Cn3c(=O)n(CCC)c4ccccc43)nc2C)n[nH]c1=S [CBK297890] | 97.7% |
| Nc1ccc2cc3ccc(N)cc3nc2c1 [CBK024003G] | 71% |
| Cc1ccc(CC(=O)N2CCC(c3ncc(C(=O)Nc4ccc(F)cc4)c(C)n3)CC2)cc1 [CBK285884] | 111% |
| Cc1ccc(Cl)cc1C(=O)N[C@H]1C[C@@H](c2nnc(CO)n2C2CC2)C1 [CBK306746] | 92.8% |
| COc1cc(/C=N/NC(=O)c2ccncc2)ccc1OC(=O)c1cccs1 [CBK262278] | 103% |
| CC1CCCN(CCCNS(=O)(=O)c2ccc(N3CCCC3=O)cc2)C1 (stereo not shown) [CBK304213] | 90% |
| Cc1cc(C(F)F)n2nc(C(=O)Nc3cccc(S(=O)(=O)N4CCOCC4)c3)nc2n1 [CBK266198] | 101% |
| Cc1scc(C(=O)NN2CCN(C)CC2)c1-c1ccccc1 [CBK268115] | 93% |
| O=C(N[C@@H](Cn1cc(Cl)c(=O)[nH]c1=O)C(=O)O)C1CC1 [CBK289649] | 88.3% |
| CN(C)CCCOC(=O)CN1c2ccccc2CCc2ccccc21 [CBK022863C] | 97% |
| O=C(Nc1ccc(N2CCN(Cc3ccccc3)CC2)cc1)c1nc[nH]n1 [CBK266960] | 105% |
| CC(C)C(=O)N1CC2(CCN(CCCCC3NC(=O)NC3=O)CC2)c2ccccc21 (stereo not shown) [CBK131471] | 111% |
| O=C(NCCc1ccccc1)NCCc1cccs1 [CBK045154] | 114% |
| Cc1ccc(C(=O)N/C(=C\c2cccc([N+](=O)[O-])c2)C(=O)NC2CCCCC2)cc1 [CBK261407] | 89.2% |
| O=C(c1ccc2ncccc2c1)N1CCc2ccccc21 [CBK200403] | 81.8% |
| COc1ccc(CC(=O)N2CCCC2c2cccc(Cc3cccc(F)c3)n2)cc1 (stereo not shown) [CBK286220] | 108% |
| O=C(CCn1c(=O)oc2cc(Cl)ccc21)NCc1ccco1 [CBK269857] | 95% |
| NS(=O)(=O)c1ccc(CCNCC2CCCCC2)cc1 [CBK288467] | 92.5% |

| SMILES | viability at 28.5 h, 10 µM |
| --- | --- |
| Brc1cccc(CSc2nnc(COc3ccccc3)n2Cc2ccccc2)c1 [CBK268250] | 113% |
| Cn1nc(NC(=O)CN2CCOC2=O)c2c(N3CCOCC3)cccc21 [CBK306830] | 102% |
| Fc1cc(Br)ccc1-c1cn(-c2ccc3[nH]ccc3c2)nn1 [CBK113146] | 91.2% |
| Cn1nccc1CN1CCCC(Cc2nc3ccccc3[nH]2)C1 (stereo not shown) [CBK281892] | 98.2% |
| COc1ccccc1N1CCN(C(=O)CC2(CC(=O)O)CCCC2)CC1 [CBK296137] | 105% |
| Nc1ncc(-c2ccc(C(=O)N3CCOCC3)cc2)nc1C(=O)Nc1ccccc1 [CBK149153] | 85.7% |
| S=c1[nH]nc(COc2ccccc2)n1C1CCCCC1 [CBK014411] | 96.2% |
| Cn1cc(CNCC2CCN(c3ccccc3)C2)c(-c2ccncc2)n1 (stereo not shown) [CBK306317] | 94.3% |
| COc1ccc(-n2nnnc2SCC(=O)c2ccc(O)c(O)c2)cc1 [CBK293969] | 90.3% |
| COc1cc2c(cc1OC)C1(CCN(CCCC(F)(F)F)CC1)NC(=O)C2 [CBK039859] | 97.9% |
| O=C(O)C1CC(=O)N(CCc2c[nH]c3ccc(Cl)cc23)C1 (stereo not shown) [CBK287211] | 91% |
| O=c1c2ccccc2nc(CSc2[nH]cnc3ncnc2-3)n1-c1ccc(Cl)c(Cl)c1 [CBK217854] | 93.9% |
| CN(Cc1ccccc1NCCn1c(=O)oc2ccccc21)C1CCCCC1 [CBK296678] | 78.1% |
| O=C1CC(c2cccs2)Sc2nc3ccccc3n21 (stereo not shown) [CBK091627] | 110% |
| Cc1nc(C)c(-c2csc(Nc3ncccn3)n2)s1 [CBK263297B] | 87.4% |
| CC(C)N1CCC(C(=O)NC(=O)Nc2ccc3c(c2)OCCO3)CC1 [CBK034799] | 93.6% |
| COc1ccccc1CN1CCC(Cc2ccccc2-c2ccc(C)cc2C)(C(=O)O)CC1 [CBK286419] | 88.4% |
| CC(NC(=O)C1CCN(Cc2ncc[nH]2)CC1)c1ccc(F)cc1 (stereo not shown) [CBK148037] | 97% |
| CSCCCNC(=O)N(CCc1ccccc1)Cc1ccccc1 [CBK155317] | 87.2% |
| C=CCOc1ccc(Cl)cc1C(=O)NCc1c(C)n[nH]c1C [CBK282587] | 82.6% |
| CC(C)(CO)CNc1nc(-c2cc(C(F)(F)F)cc(C(F)(F)F)c2)cnc1N [CBK063490] | 101% |
| CC(=O)Nc1ccc(CNC(=O)c2cccnc2OCC(F)(F)F)cc1 [CBK305682] | 91.5% |

| SMILES | viability at 28.5 h, 10 µM |
| --- | --- |
| NCC(=O)N(CCC1CCCC1)c1cccc2ccccc12 [CBK011922C] | 88.2% |
| Cn1c(SCCC(=O)O)nnc1-c1ccc2c(c1)OCO2 [CBK269842] | 92.6% |
| Cc1ccc(S(=O)(=O)N2c3ccc(C(=O)O)cc3CC2C)cc1 (stereo not shown) [CBK286584] | 82.6% |
| O=S(=O)(N1CCCCC1)N1CCN(CC(O)COc2ccc3cc(Br)ccc3c2)CC1 (stereo not shown) [CBK269032] | 106% |
| Cc1cc(F)ccc1S(=O)(=O)N(C(=O)c1ccncc1)c1ccc(OC(=O)c2ccncc2)cc1 [CBK266909] | 91.1% |
| O=C1c2ccccc2S(=O)(=O)N1CC(O)Cn1c2ccc(Br)cc2c2cc(Br)ccc21 (stereo not shown) [CBK262347] | 112% |
| O=C(O)c1ccc(NC(CC(=O)c2ccccc2)c2ccc(Br)cc2)cc1 (stereo not shown) [CBK266195C] | 109% |
| COCc1ccc(C(=O)N2CCC(c3cc4cnccc4[nH]3)CC2)o1 [CBK283073] | 90.9% |
| CN1CCN(C2c3ccccc3Oc3ccccc32)CC1 [CBK066891] | 93% |
| O=C(NCCc1cccs1)Nc1ccc(F)c(F)c1F [CBK044543] | 96.1% |
| O=C(Nc1cccc(S(=O)(=O)N2CCOCC2)c1)c1cc(-c2cccnc2)nc2ccc(Cl)cc12 [CBK267720] | 98% |
| COc1cc(CN2Cc3cccc(C(=O)O)c3C2=O)cc(OC)c1OC [CBK291227] | 108% |
| CNS(=O)(=O)c1cc(C(=O)NCc2ccccc2)ccc1OC [CBK270277] | 94.9% |
| CCN(CC)C(=O)C1CCCN(C(=O)NCc2ccc3c(c2)OCO3)C1 (stereo not shown) [CBK156121] | 100% |
| CSc1nc2n(n1)C(C)C1=C(CCCC1=O)N2 (stereo not shown) [CBK288169] | 108% |
| O=C(O)C1Cc2ccccc2CN1C(=O)c1ccccc1 (stereo not shown) [CBK286628] | 102% |
| O=C(c1sc2ccccc2c1Cl)n1cnc2ccccc21 [CBK262216] | 101% |
| Cn1cc(C2CCCCCN2S(=O)(=O)c2ccc3[nH]c(=O)[nH]c(=O)c3c2)cn1 (stereo not shown) [CBK286406] | 103% |
| CC(=O)Nc1cccc(C(=O)N2CCCC2c2ccncc2)c1 (stereo not shown) [CBK305080] | 96.5% |
| Cc1cc(OCCCC(=O)Nc2cccc([N+](=O)[O-])c2)cc(C)c1Cl [CBK267978] | 97.8% |
| c1ccc2[nH]c(NCCN3CCOCC3)nc2c1 [CBK268791] | 96.7% |

same assay, conditions: human, hela cells, % viability, bulk resorufin, single well

| SMILES | viability at 28.5 h, 10 µM |
| --- | --- |
| O=C1NC(=O)C(=Cc2cccc(OCCOc3ccc([N+](=O)[O-])cc3)c2)C(=O)N1 [CBK126857] | 95.7% |
